Holding throughout (experiment): inhibition of tumour cell growth, NCI panel, 48 h
In assay [1] the test system is HL-60(TB) leukemia.
Assay [2] relates to CCRF-CEM leukemia.
In assay [3] the test system is DLD-1 colon.
Assay [4] has as its system KM20L2 colon.
Assay [5] concerns HS 578T breast.
For assay [6], the system named is SW-620 colon.
Assay [7] deals with T-47D breast.
In assay [8] the test system is NCI-H522 lung.
Assay [9] concerns EKVX NSCLC.
The test system of assay [10] is SK-MEL-28 melanoma.

Where “and” joins values, the source holds several entries; their conditions need not be identical. Identical values can stand only once.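 Step 1: Grow cells in 96-well plates. Step 2: Expose to compound for 48 hours at 5 concentrations. Step 3: Interpolate endpoints linearly; if unreached, use highest concentration. GI50 is the concentration that inhibits growth by half. TGI: concentration producing complete growth inhibition.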

The values below come from PubChem BioAssay (NCI).

With `CCN(CC)CCN1C(=O)c2c(c3c4cccc(Cl)c4n(C4OC(CO)C(OC)C(O)C4O)c3c3[nH]c4c(Cl)cccc4c23)C1=O` (stereo not drawn), the GI50 in assay [1] is 0.309 µM and 0.0366 µM; in assay [2], below 0.0001 µM; in assay [3], 0.000403 µM; in assay [4], 0.000446 µM; in assay [6], below 0.0001 µM; in assay [8], below 0.01 µM. The TGI in assay [4] was 0.0103 µM; in [5], 1.99 µM; in assay [7], 2.26 µM; in assay [8], 0.21 µM and 0.146 µM.
Consider `[CH3][Ge]([CH3])([CH2]CC#N)[S]c1ccccc1`, for which the GI50 is 2.2 µM in [1]; 1.38 µM in assay [2]; 14.6 µM in [3]; 7.28 µM in [9]; 21.6 µM in assay [4]; 16.5 µM in assay [10]. The values for the GI50 in assay [6] and in assay [8] were 14.1 µM and 3.31 µM, respectively. The TGI amounted to 11.9 µM in assay [1]; 4.35 µM in assay [2]; 31.6 µM in [3]; 66.2 µM in assay [9]; 47.9 µM in assay [4]; 65.1 µM in [10]. The TGI amounted to 29.4 µM in assay [6] and 11.1 µM in [8].
For `Nc1nc2c(ncn2C2OC(CO)C(O)C2O)c(=O)o1` (stereo not drawn), the TGI in assay [1], in assay [2], in assay [3], in assay [9], in assay [4] and in assay [10] was above 100 µM throughout. Besides, the TGI was above 93.6 µM in [6] and above 100 µM in assay [8].
`c1ccc(-c2sc(-c3ccccc3)c3c2C(c2ccccc2)c2c(-c4ccccc4)sc(-c4ccccc4)c2C3c2ccccc2)cc1` (stereo not drawn): the TGI in assay [1], in assay [2], in assay [3], in assay [9], in [4] and in assay [10] was above 100 µM in each case. The TGI in assay [6] and in assay [8] was above 100 µM in each case.
Consider `CC[C@@]1(O)C(=O)OCc2c1cc1n(c2=O)Cc2cc3cc(O)ccc3nc2-1`, for which the GI50 in assay [1] was 0.0187 µM; in [3], 0.514 µM; in [9], 0.107 µM and 0.903 µM; in assay [4] it was 0.186 µM; in assay [10], 0.166 µM and 0.264 µM; in assay [6], 0.0179 µM and < 0.0154 µM. Besides, in [8], the GI50 is below 0.0075 µM. Besides, the TGI was 0.135 µM in assay [1]; 75 µM and > 87.2 µM in [3]; 8.14 µM and 4.97 µM in [4]; 8.52 µM in assay [5]; 10 µM and > 38.9 µM in assay [10]; 22.9 µM and 3.78 µM in [6]. For the same compound, the TGI in [7] was above 100 µM; in assay [8] it was 0.103 µM and 0.447 µM.
In the case of `O=C(Nc1ccc(Nc2ccc(NC(=O)c3ccccc3)c3c2C(=O)c2ccccc2C3=O)c2c1C(=O)c1ccccc1C2=O)c1ccccc1`, the TGI in [1], in assay [2], in [3], in [9], in assay [4] and in [10] was above 100 µM each time. Also, the TGI in [6] and in assay [8] was above 100 µM each time.
As to `Oc1ccc(I)c2cccnc12`, the TGI in [1] is 5.76 µM; in assay [2] it was 9.68 µM; in assay [3], above 100 µM; in assay [9] it was 65.2 µM; in [4], above 100 µM; in assay [10] it was above 100 µM. Moreover, the values for the TGI in [6] and in assay [8] were above 100 µM and 7.2 µM, respectively.
For the compound `Cc1c(C(=O)/C=C/c2ccc([N+](=O)[O-])cc2)[n+](=O)c2ccccc2n1[O-]`, the TGI in assay [1] was 2.89 µM; in [2], 99.2 µM; in [3], above 100 µM; in [9], above 100 µM; in assay [4], above 100 µM; in [10], above 100 µM. In addition, the TGI in assay [6] is above 100 µM; in assay [8], 53.6 µM.
In the case of `NC(N)=NCCCC(Nc1c2ccccc2nc2ccccc12)C(=O)O` (stereo not drawn), the TGI in [1], in assay [2], in assay [3], in assay [9], in assay [4] and in assay [10] was above 100 µM in each case. The TGI in assay [6] and in [8] was above 100 µM in each case.
Take `COC1(OC)CCC2(C)OC(c3ccccc3)C1O2` (stereo not drawn): the TGI in [1], in assay [2], in [3], in [9], in assay [4] and in [10] was above 100 µM throughout. Moreover, the TGI in [6] and in assay [8] was above 100 µM throughout.
For `CS(=O)(=O)ON1C(=O)c2ccc(N)cc2C1=O`, the TGI in assay [1] was 46.5 µM; in [2], above 76.7 µM; in [3] it was above 100 µM; in assay [9] it was above 100 µM; in [4], above 100 µM; in assay [10] it was above 88.6 µM. Also, the TGI in [6] is above 100 µM; in [8], 43.2 µM.
`CC(=O)[CH-]C(=O)c1ccccc1.CC(=O)[CH-]C(=O)c1ccccc1.CC(=O)[CH-]C(=O)c1ccccc1.[Cl-].[Hf+4]`: the GI50 is 25.8 µM in [1]; 9.36 µM in [2]; 25.8 µM in assay [3]; 24.2 µM in assay [9]; 25.1 µM in [4]; 23.6 µM in assay [10]. The GI50 was 52.2 µM in assay [6] and 26.5 µM in [8]. For the same compound, the TGI in [1] was above 100 µM; in [2], above 100 µM; in assay [3], above 100 µM; in assay [9] it was 92.9 µM; in assay [4] it was above 100 µM; in assay [10], 85.3 µM. Moreover, the TGI in assay [6] and in assay [8] was above 100 µM throughout.
As for `Nc1nc(N)c2c(Cl)c(CNc3ccc(Cl)c(Cl)c3)ccc2n1`, the TGI in assay [1] came to 2.75 µM; in assay [2], 12.1 µM; in [3], 11.8 µM; in assay [9], 19.2 µM; in assay [4] it was 18.6 µM; in assay [5], 11.9 µM. In addition, the TGI was determined as 18.7 µM in assay [10], 14.6 µM in [6], 23.3 µM in assay [7] and 9.56 µM in assay [8].
For `C/C(=C\CNc1ncnc2c1ncn2C1CCCCO1)COP(=O)(O)O` (stereo not drawn), the TGI in assay [1], in assay [2], in assay [3], in assay [9], in assay [4] and in assay [10] was above 100 µM each time. The TGI in assay [6] and in assay [8] was above 100 µM in each case.
For `COC(=O)C1=C(C)N(NC(N)=O)C2(N)N(NC(N)=O)C(C)=C(C(=O)OC)C12C#N` (stereo not drawn), the TGI in assay [1], in [2], in assay [3], in assay [9], in assay [4] and in [10] was above 100 µM in each case. Also, the TGI in assay [6] and in assay [8] was above 100 µM throughout.
For the compound `CC(C)(C)c1cc(Cc2ccc(S(C)(=O)=O)cc2)c(O)c(C(C)(C)C)c1`, the TGI in assay [1] is 42 µM; in [2], 30.5 µM; in [3] it was 33 µM; in [9], 28.4 µM; in [4] it was 29.1 µM; in [10], 32 µM. Also, the TGI in [6] worked out at 31.2 µM; in assay [8], 24.9 µM.
As to `N#CC(Cl)CS(=O)(=O)c1ccccc1` (stereo not drawn), the TGI in [1] is above 100 µM; in assay [3] it was 3.98 µM; in assay [9], 38.6 µM; in assay [4] it was 39.4 µM; in assay [5], above 100 µM; in [10] it was 28 µM. Moreover, the TGI in [6] turned out to be 3.75 µM; in assay [7], 6.06 µM; in assay [8] it was 2.26 µM.
Regarding `CN(C)CC1CCCC/C1=N\OC(=O)c1ccccc1` (stereo not drawn), the TGI in [1], in assay [2], in [3], in [9], in assay [4] and in assay [10] was above 100 µM each time. Moreover, the TGI in assay [6] and in assay [8] was above 100 µM each time.
With `[pH]1p2[pH]p3p1p3[pH]2.c1cc[c]([Ge]([c]2ccccc2)[c]2ccccc2)cc1.c1cc[c]([Ge]([c]2ccccc2)[c]2ccccc2)cc1.c1cc[c]([Ge]([c]2ccccc2)[c]2ccccc2)cc1`, the GI50 is 15.5 µM in assay [1]; 28 µM in assay [2]; 14.8 µM in assay [3]; 21.3 µM in [9]; 19.4 µM in [4]; 11.9 µM in assay [10]. Also, the GI50 in assay [6] was 16.3 µM; in assay [8], 4.46 µM. The TGI in assay [1] was 57.3 µM; in assay [2] it was above 100 µM; in [3] it was 29.5 µM; in [9] it was 46.3 µM; in [4], 34 µM; in assay [10], 25 µM. For the same compound, the TGI came out at 29.9 µM in assay [6] and 17.8 µM in assay [8].
